Reference: US12202828B2, “Bicyclic heterocycle compounds and their uses in therapy” (ASTEX THERAPEUTICS LIMITED, priority 2013, dated 2025)
Values joined by “and” are separate entries in the source; they are usually repeats but may differ in a detail not shown here. Identical values can stand only once. Counter-ions that a name gives are not always drawn.

What was measured:
hERG ion channel = biological target: T1, hERG ion channel (Homo sapiens, UniProt Q12809); test: Population Patch Clamp (PPC) hERG assay in CHO K1 cells; format: cell-based; conditions: for IC50: CHO K1 cells stably transfected with hERG
T1 construct: expressed in transfected cells; host or cells: CHO K1
T1 sequence (Q12809 whole entry): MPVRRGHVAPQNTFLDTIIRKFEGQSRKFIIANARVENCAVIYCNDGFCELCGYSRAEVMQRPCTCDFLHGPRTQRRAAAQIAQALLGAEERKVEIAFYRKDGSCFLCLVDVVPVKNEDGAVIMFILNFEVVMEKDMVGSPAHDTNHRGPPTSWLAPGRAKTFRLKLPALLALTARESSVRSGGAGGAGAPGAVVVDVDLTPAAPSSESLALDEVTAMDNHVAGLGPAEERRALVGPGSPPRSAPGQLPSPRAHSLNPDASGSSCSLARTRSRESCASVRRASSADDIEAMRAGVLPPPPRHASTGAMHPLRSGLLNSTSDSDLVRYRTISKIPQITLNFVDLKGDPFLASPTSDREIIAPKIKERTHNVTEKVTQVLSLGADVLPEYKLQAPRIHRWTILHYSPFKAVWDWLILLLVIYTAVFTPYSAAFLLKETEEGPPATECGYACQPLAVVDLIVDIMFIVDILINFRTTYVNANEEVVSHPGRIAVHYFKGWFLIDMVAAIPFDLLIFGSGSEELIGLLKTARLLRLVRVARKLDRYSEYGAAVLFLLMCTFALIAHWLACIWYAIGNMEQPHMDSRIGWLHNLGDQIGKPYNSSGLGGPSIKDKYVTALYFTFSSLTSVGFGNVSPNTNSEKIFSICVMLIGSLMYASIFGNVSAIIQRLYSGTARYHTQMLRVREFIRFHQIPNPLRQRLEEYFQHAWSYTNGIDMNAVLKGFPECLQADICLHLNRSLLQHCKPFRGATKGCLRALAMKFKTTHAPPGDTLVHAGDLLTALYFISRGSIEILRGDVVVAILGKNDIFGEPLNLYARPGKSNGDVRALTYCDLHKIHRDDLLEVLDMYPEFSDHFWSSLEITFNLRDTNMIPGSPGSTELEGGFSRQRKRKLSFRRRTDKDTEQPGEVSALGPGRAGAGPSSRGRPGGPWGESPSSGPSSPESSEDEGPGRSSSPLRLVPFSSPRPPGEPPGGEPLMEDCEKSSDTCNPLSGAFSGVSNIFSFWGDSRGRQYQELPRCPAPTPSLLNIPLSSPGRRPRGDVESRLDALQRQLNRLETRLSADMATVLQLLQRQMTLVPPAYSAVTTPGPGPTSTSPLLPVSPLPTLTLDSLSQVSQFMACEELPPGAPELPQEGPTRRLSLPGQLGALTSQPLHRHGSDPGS
Procedure: Inhibition of the hERG channel was measured by automated patch clamp assay in CHO K1 cells, stably transfected with the hERG ion channel. PPC measurements were performed using an IonWorks Quattro instrument (Molecular Devices Corporation, Union City, CA) using a 384 well PatchPlate (Molecular Devices Corporation) with 64 apertures per well. Each concentration of test compound was tested in duplicate wells. Amphotericin B was used to obtain electrical access to the cell interior at a final concentration of 200 μg/mL. Human ether-à-gogo related gene (hERG) currents were measured with a prepulse to +40 mV (2 s) from the holding potential of −80 mV, followed by a step to −50 mV (2 s) to elicit the deactivating tail currents, before returning to the holding potential for 1s. Compounds were incubated for 600s between the pre- and post-compound reads. The external recording solution used was 130 mM Na Gluconate, 20 mM NaCl, 4 mM KCl, 1 mM MgCl2, 1.8 mM CaCl2, 10 mM Hepes, 5 mM Glucose, pH to 7.3 with NaOH. All data were filtered for seal quality, seal drop, and current amplitude. The maximum current amplitude of the 3rd pulse tail current was calculated before (Pre) and after (Post) compound addition and the amount of block assessed by dividing the Post-compound current amplitude by the Pre-compound current amplitude.

[1] = biological target: T2, XIAP-Caspase-9 in HEK293-XIAP-Caspase-9 cells (Homo sapiens, UniProt P98170); test: HEK293-XIAP-Caspase-9 immunoprecipitation (IP) MSD assay; format: cell-based; conditions: compound 2 h at 37° C.; read-out: HEK293-X-C9 IP
T2 construct: FLAG; expressed in transfected cells
T2 sequence (P98170 whole entry): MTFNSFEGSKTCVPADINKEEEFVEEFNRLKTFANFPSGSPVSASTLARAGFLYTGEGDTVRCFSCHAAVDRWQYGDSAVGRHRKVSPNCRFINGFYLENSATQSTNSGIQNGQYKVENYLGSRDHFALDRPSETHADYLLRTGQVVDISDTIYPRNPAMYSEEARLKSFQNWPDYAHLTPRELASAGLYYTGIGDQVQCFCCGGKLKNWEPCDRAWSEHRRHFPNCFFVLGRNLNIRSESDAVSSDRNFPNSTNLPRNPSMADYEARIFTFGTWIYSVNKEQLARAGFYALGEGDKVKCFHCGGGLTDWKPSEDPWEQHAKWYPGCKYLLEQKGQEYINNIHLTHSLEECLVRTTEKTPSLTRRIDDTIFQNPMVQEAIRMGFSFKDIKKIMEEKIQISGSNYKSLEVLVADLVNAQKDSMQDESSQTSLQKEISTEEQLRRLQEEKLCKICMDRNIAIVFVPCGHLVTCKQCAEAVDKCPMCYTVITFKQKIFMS
Procedure: Stable HEK293-XIAP-Caspase-9 cells were plated out into 96-well plates [200 μl/well at 1×10^6 cells/mL in cultured complete medium (DMEM+10% FBS+0.5 mg/mL Geneticin (Invitrogen)] and left overnight at 37° C. to recover. Compounds were added to duplicate wells in 0.1% DMSO for 2 h at 37° C. Cells were lysed in 50 μl 1×MSD lysis buffer (1% Triton X-100 in 20 mM Tris·Cl (pH 7.6), 150 mM NaCl including protease inhibitors) for 20 min rocking at room temperature. Streptavidin high bind MSD plate (L15SB-2) were coated with biotinylated anti-FLAG M2 antibody (Sigma F9291) at 25 μl/well with a 5 μg/mL dilution of antibody in PBS for 1 h, shaking; followed by blocking for 1 h with 150 μl 3% BSA/TBST. Cell lysate (25 μl) was added to the 96-well anti-FLAG coated MSD plate and placed on shaker for 4 h at room temperature. […] Plates were washed 4 times with 150 μl TBST, and 150 μl/well 1×MSD read buffer (R92TC-2) added before reading each plate.
EC50 values were determined from dose-response plots using nonlinear least-squares analysis.

COCC(O)c1nc2c(cc1Cc1ccc(F)cc1)N(C(=O)CN1C[C@@H](C)NC[C@@H]1CN1CCOC[C@H]1C)CC2(C)C (single isomer, unassigned) [Example 26, 1-{6-[(4-Fluorophenyl)methyl]-5-((R or S)-1-hydroxy-2-methoxyethyl)-3,3-dimethyl-1H,2H,3H-pyrrolo[3,2-b]pyridin-1-yl}-2-[(2R,5R)-5-methyl-2-{[(3R)-3-methylmorpholin-4-yl]methyl}piperazin-1-yl] ethan-1-one trihydrochloride]
hERG PPC (PI) (hERG ion channel; @ 31.3 μM): 41% @ 31.3
EC50 [1]: 12 nM

C[C@@H]1CN(CC(=O)N2CC(C)(C)c3nc(CO)c(Cc4ccccc4F)cc32)[C@@H](CN2CCOC[C@H]2C)CN1 [Example 4, 1-{6-[(2-Fluorophenyl)methyl]-5-(hydroxymethyl)-3,3-dimethyl-1H,2H,3H-pyrrolo[3,2-b]pyridin-1-yl}-2-[(2R,5R)-5-methyl-2-{[(3R)-3-methylmorpholin-4-yl]methyl}piperazin-1-yl] ethan-1-one dihydrochloride]
hERG PPC (PI) (hERG ion channel; @ 30 μM): 47% @ 30
EC50 [1]: 2.6 nM

C[C@@H]1CN(CC(=O)N2CC(C)(C)c3nc(C(O)CO)c(Cc4ccc(F)cc4)cc32)[C@@H](CN2[C@H](C)COC[C@H]2C)CN1 (single isomer, unassigned) [Example 21, 1-[5-((R or S)-1,2-Dihydroxyethyl)-6-[(4-fluorophenyl)methyl]-3,3-dimethyl-1H,2H,3H-pyrrolo[3,2-b]pyridin-1-yl]-2-[(2R,5R)-2-{[(3R,5R)-3,5-dimethylmorpholin-4-yl]methyl}-5-methylpiperazin-1-yl] ethan-1-one dihydrochloride]
hERG PPC (PI) (hERG ion channel; @ 100 μM): 35% @ 100
EC50 [1]: 2.1 nM

C[C@@H]1CN(CC(=O)N2CC(C)(C)c3c2cc(Cc2ccccc2F)c(=O)n3C)[C@@H](CN2CCOC[C@H]2C)CN1 [Example 9, 6-[(2-Fluorophenyl)methyl]-3,3,4-trimethyl-1-{2-[(2R,5R)-5-methyl-2-{[(3R)-3-methylmorpholin-4-yl]methyl}piperazin-1-yl]acetyl}-1H,2H,3H,4H,5H-pyrrolo[3,2-b]pyridin-5-one dihydrochloride]
hERG PPC (PI) (hERG ion channel; @ 300 μM): 50% @ 300
EC50 [1]: 3 nM

CCCCc1cc2c(n(C)c1=O)C(C)(C)CN2C(=O)CN1C[C@@H](C)NC[C@@H]1CN1[C@H](C)COC[C@H]1C [Example 33, 6-Butyl-1-{2-[(2R,5R)-2-{[(3R,5R)-3,5-dimethylmorpholin-4-yl]methyl}-5-methylpiperazin-1-yl]acetyl}-3,3,4-trimethyl-1H,2H,3H,4H,5H-pyrrolo[3,2-b]pyridin-5-one dihydrochloride]
hERG PPC (PI) (hERG ion channel; @ 31.3 μM): 33% @ 31.3
EC50 [1]: 2.4 nM

C[C@@H]1CN(CC(=O)N2CC(C)(C)c3[nH]c(=O)c(Cc4ccc(F)cc4F)cc32)[C@@H](CN2[C@H](C)COC[C@H]2C)CN1 [Example 7, 6-[(2,4-Difluorophenyl)methyl]-1-{2-[(2R,5R)-2-{[(3R,5R)-3,5-dimethylmorpholin-4-yl]methyl}-5-methylpiperazin-1-yl]acetyl}-3,3-dimethyl-1H,2H,3H,4H,5H-pyrrolo[3,2-b]pyridin-5-one dihydrochloride]
hERG PPC (PI) (hERG ion channel; @ 100 μM): 33% @ 100
EC50 [1]: 1.2 nM

COCC(O)c1nc2c(cc1Cc1ccc(F)cc1)N(C(=O)CN1C[C@@H](C)NC[C@@H]1CN1CCOC[C@H]1C)CC2(C)C (single isomer, unassigned) [Example 28, 1-{6-[(4-Fluorophenyl)methyl]-5-((R or S)-1-hydroxy-2-methoxyethyl)-3,3-dimethyl-1H,2H,3H-pyrrolo[3,2-b]pyridin-1-yl}-2-[(2R,5R)-5-methyl-2-{[(3R)-3-methylmorpholin-4-yl]methyl}piperazin-1-yl] ethan-1-one trihydrochloride]
hERG PPC (PI) (hERG ion channel; @ 125 μM): 45% @ 125
EC50 [1]: 4.4 nM

C[C@@H]1CN(CC(=O)N2CC(C)(C)c3[nH]c(=O)c(Cc4ccc(F)cc4)cc32)[C@@H](CN2CCOC[C@H]2C)CN1 [Example 5, 6-[(4-Fluorophenyl)methyl]-3,3-dimethyl-1-{2-[(2R,5R)-5-methyl-2-{[(3R)-3-methylmorpholin-4-yl]methyl}piperazin-1-yl]acetyl}-1H,2H,3H,4H,5H-pyrrolo[3,2-b]pyridin-5-one dihydrochloride]
hERG PPC (PI) (hERG ion channel; @ 300 μM): 42% @ 300
EC50 [1]: 5.3 nM

C[C@@H]1CN(CC(=O)N2CC(C)(C)c3c2cc(Cc2ccc(F)cc2F)c(=O)n3C)[C@@H](CN2[C@H](C)COC[C@H]2C)CN1 [Example 12, 6-[(2,4-Difluorophenyl)methyl]-1-{2-[(2R,5R)-2-{[(3R,5R)-3,5-dimethylmorpholin-4-yl]methyl}-5-methylpiperazin-1-yl]acetyl}-3,3,4-trimethyl-1H,2H,3H,4H,5H-pyrrolo [3,2-b]pyridin-5-one dihydrochloride]
hERG PPC (PI) (hERG ion channel; @ 100 μM): 41% @ 100
EC50 [1]: 0.69 nM

CCCCc1cc2c(nc1CO)C(C)(C)CN2C(=O)CN1C[C@@H](C)NC[C@@H]1CN1[C@H](C)COC[C@H]1C [Example 34, 1-[6-Butyl-5-(hydroxymethyl)-3,3-dimethyl-1H,2H,3H-pyrrolo[3,2-b]pyridin-1-yl]-2-[(2R,5R)-2-{[(3R,5R)-3,5-dimethylmorpholin-4-yl]methyl}-5-methylpiperazin-1-yl] ethan-1-one dihydrochloride]
IC50 (hERG ion channel): 55000 nM
EC50 [1]: 3.8 nM

C[C@@H]1CN(CC(=O)N2CC(C)(C)c3nc(C(O)CO)c(Cc4ccc(F)cc4)cc32)[C@@H](CN2CCOC[C@H]2C)CN1 (single isomer, unassigned) [Example 14, 1-[5-((R or S)-1,2-Dihydroxyethyl)-6-[(4-fluorophenyl)methyl]-3,3-dimethyl-1H,2H,3H-pyrrolo [3,2-b]pyridin-1-yl]-2-[(2R,5R)-5-methyl-2-{[(3R)-3-methylmorpholin-4-yl]methyl}piperazin-1-yl] ethan-1-one dihydrochloride]
hERG PPC (PI) (hERG ion channel; @ 300 μM, dihydrochloride): 58% @ 300
EC50 [1]: 13 nM

Cc1c2c(cn(Cc3ccc(F)cc3F)c1=O)N(C(=O)CN1C[C@@H](C)NC[C@@H]1CN1CCOC[C@H]1C)CC2(C)C [Example 31, 6-[(2,4-Difluorophenyl)methyl]-3,3,4-trimethyl-1-{2-[(2R,5R)-5-methyl-2-{[(3R)-3-methylmorpholin-4-yl]methyl}piperazin-1-yl]acetyl}-1H,2H,3H,5H,6H-pyrrolo[2,3-c]pyridin-5-one dihydrochloride]
IC50 (hERG ion channel): 140000 nM
EC50 [1]: 0.94 nM and 2.2 nM

COC(CO)c1nc2c(cc1Cc1ccc(F)cc1)N(C(=O)CN1C[C@@H](C)NC[C@@H]1CN1CCOC[C@H]1C)CC2(C)C (single isomer, unassigned) [Example 29, 1-{6-[(4-Fluorophenyl)methyl]-5-((R or S)-2-hydroxy-1-methoxyethyl)-3,3-dimethyl-1H,2H,3H-pyrrolo[3,2-b]pyridin-1-yl}-2-[(2R,5R)-5-methyl-2-{[(3R)-3-methylmorpholin-4-yl]methyl}piperazin-1-yl] ethan-1-one]
hERG PPC (PI) (hERG ion channel; @ 500 μM): 53% @ 500
EC50 [1]: 13 nM

C[C@@H]1CN(CC(=O)N2CC(C)(C)c3c2cc(Cc2ccc(F)cc2F)c(=O)n3C)[C@@H](CN2CCOC[C@H]2C)CN1 [Example 19, 6-[(2,4-Difluorophenyl)methyl]-3,3,4-trimethyl-1-{2-[(2R,5R)-5-methyl-2-{[(3R)-3-methylmorpholin-4-yl]methyl}piperazin-1-yl]acetyl}-1H,2H,3H,4H,5H-pyrrolo[3,2-b]pyridin-5-one dihydrochloride]
hERG PPC (PI) (hERG ion channel; @ 100 μM): 42% @ 100
EC50 [1]: 1.2 nM

C[C@@H]1CN(CC(=O)N2CC(C)(C)c3cc(=O)n(Cc4ccc(F)cc4)cc32)[C@@H](CN2CCOC[C@H]2C)CN1 [Example 17, 6-[(4-Fluorophenyl)methyl]-3,3-dimethyl-1-{2-[(2R,5R)-5-methyl-2-{[(3R)-3-methylmorpholin-4-yl]methyl}piperazin-1-yl]acetyl}-1H,2H,3H,5H,6H-pyrrolo[2,3-c]pyridin-5-one dihydrochloride]
hERG PPC (PI) (hERG ion channel; @ 300 μM): 59% @ 300
EC50 [1]: 28 nM

C[C@@H]1CN(CC(=O)N2CC(C)(C)c3c2cc(Cc2ccc(F)cc2F)c(=O)n3C)[C@@H](CN2C[C@H](C)OC[C@H]2C)CN1 [Example 25, 6-[(2,4-Difluorophenyl)methyl]-1-{2-[(2R,5R)-2-{[(2S,5R)-2,5-dimethylmorpholin-4-yl]methyl}-5-methylpiperazin-1-yl]acetyl}-3,3,4-trimethyl-1H,2H,3H,4H,5H-pyrrolo[3,2-b]pyridin-5-one dihydrochloride]
EC50 [1]: 2.7 nM
